Article PMC10612037 (Viruses, 2023)
Where a name gives a salt, the structure may show the parent alone.

Legend:
[1] = system: HIV-1 xxLAI; assay: microbe, parasite or virus in culture; format: cell-based; settings: Human immunodeficiency virus 1; unpassaged HIV-1 xxLAI WT stock virus
[2] = system: HIV-1 subtypes A, B, C, D, CRF_AE, CRF_AG; assay: Dose-response assay in TZM-GFP cells, diverse primary isolates
[3] = system: HIV-1 NL4-3; assay: Dose-response assay in TZM-GFP cells, NL4-3 molecular clones with RT mutations; settings: for major resistance observed: all NL4-3 mutants tested, major = >12-fold for ISL, >4-fold for TDF
[4] = system: HIV-1 reverse transcriptase (endogenous RT in virions); assay: Endogenous reverse transcriptase assay; format: biochemical; settings: K65R virions
[5] = system: HIV-1 isolates B, C, CRF_AE, CRF_AG; format: cell-based
[6] = system: HIV-1 RT; design: method as in earlier work; settings: K65R RT; cited from earlier work
[7] = cited from earlier work

CC(C)OC(=O)OCOP(=O)(CO[C@H](C)Cn1cnc2c(N)ncnc21)OCOC(=O)OC(C)C [TDF, Tenofovir disoproxil fumarate]
EC50 [1]: 24.6 nM
EC50 fold change from NL4-3 ([2]; subtype A): 1.3 fold
EC50 fold change from NL4-3 ([2]; subtype B): 2.2 fold
EC50 fold change from NL4-3 ([2]; subtype C): 2.2 fold
EC50 fold change from NL4-3 ([2]; subtype D): 1.6 fold
fold resistance relative to WT (EC50 fold change) ([3]; NL4-3 K65R): 3 fold
major resistance observed [3]: No major resistance

C[C@@H](Cn1cnc2c(N)ncnc21)OCP(=O)(O)OP(=O)(O)OP(=O)(O)O [TFV-DP]
resistance phenotype (IC50 fold change from WT) [4]: conferred resistance

C#C[C@]1(CO)O[C@@H](n2cnc3c(N)nc(F)nc32)C[C@@H]1O [ISL, 4′-ethynyl-2-fluoro-2′-deoxyadensine]
EC50 [1]: 3.6 nM
fold more susceptible, K65R with Ser68 vs K65R with Gly68 ([5]; CRF_AE backbone): 3 fold
susceptibility of Ser68 compared with Gly68 ([5]; CRF_AE backbone): more susceptible
sensitivity of mutant relative to WT ([5]; K65R, regardless of the isolate (B, C, CRF_AE, CRF_AG)): hypersensitivity
fold more susceptible than wildtype RT [6]: 4 fold
tolerability ([7]; early clinical studies in humans): well tolerated
effect on CD4 T cell population ([7]; lower dose of ISL): without any effects on the CD4 T cell population
effect on CD4 T cells ([7]; subsequent clinical studies, patients on ISL): decline in CD4 T cells
EC50 fold change from NL4-3 ([2]; all subtypes (A, B, C, D, CRF_AE, CRF_AG), 8-10 isolates each): no more than 1.3 fold
fold more sensitive than WT (EC50) ([3]; NL4-3 K65R): 4 fold
major resistance observed [3]: No major resistance
